These are literature values, as cited in PMC5796656 (Journal of the American Chemical Society, 2015).

For this data set the following is noted: ref [26].

Consider `O=C([O-])CN1CCN(CC(=O)[O-])CCN(CC(=O)[O-])CCN(CC(=O)[O-])CC1.[Gd+3]` [GdDOTA], for which the τM is reported as 243 ns.
